# Measured values from patent US11491120B2, “Pharmacological prophylactics against stress-induced affective disorders in females” (The Trustees of Columbia University in the City of New York, priority 2017, dated 2022).
# “Also recorded” adds a separate entry of the source.
# Assays:
# female 129S6/SvEv mice [1] = test: Forced swim test (FST), immobility time, after stress; conditions: for p, Immobility Time Average (min 3-6) / * (significance), Immobility Time (min 1) / p, Immobility Time (min 1) / p, Immobility Time (min 1-6) / p, Immobility Time (min 3) / p, Immobility Time (min 4) / p, Immobility Time (min 5) / p, Immobility Time (min 6): Forced Swim Test Day 1, 1 week prophylactic drug
# female 129S6/SvEv mice [2] = test: Contextual fear conditioning (CFC), 3-shock, freezing in training and context re-exposure; conditions: for Freezing during 3-shock CFC training vs saline: 1 week before CFC
# [3] = Dunnett test Sal vs. drug (2.5)
# [4] = single injection 1 week before stressor, female mice
# [5] = Contextual Fear Conditioning Re-exposure, Dunnett test Sal vs. drug (0.025), 1 week prophylactic drug
# [6] = Contextual Fear Conditioning Re-exposure, Dunnett test Sal vs. drug (0.075), 1 week prophylactic drug
# [7] = Contextual Fear Conditioning Re-exposure, Dunnett test Sal vs. drug (0.1), 1 week prophylactic drug
# [8] = Contextual Fear Conditioning Re-exposure, Dunnett test Sal vs. drug (0.3), 1 week prophylactic drug
# [9] = Contextual Fear Conditioning Re-exposure, Dunnett test Sal vs. drug (2.5), 1 week prophylactic drug
# [10] = Contextual Fear Conditioning Re-exposure, Dunnett test Sal vs. drug (10), 1 week prophylactic drug
# [11] = Contextual Fear Conditioning Training, Dunnett test Sal vs. drug (0.025), 1 week prophylactic drug
# [12] = Contextual Fear Conditioning Training, Dunnett test Sal vs. drug (0.075), 1 week prophylactic drug
# [13] = Contextual Fear Conditioning Training, Dunnett test Sal vs. drug (0.1), 1 week prophylactic drug
# [14] = Contextual Fear Conditioning Training, Dunnett test Sal vs. drug (0.3), 1 week prophylactic drug
# [15] = Contextual Fear Conditioning Training, Dunnett test Sal vs. drug (2.5), 1 week prophylactic drug
# [16] = Contextual Fear Conditioning Training, Dunnett test Sal vs. drug (10), 1 week prophylactic drug
smiles,measurement,setting,value
"N[C@]1(c2ccccc2Cl)CCC[C@H](O)C1=O [(2S,6S)-HNK]","p, Immobility Time Average (min 3-6)",female 129S6/SvEv mice [1]; Dunnett test Sal vs. drug (0.3),0.5532
same,"* (significance), Immobility Time (min 1)",female 129S6/SvEv mice [1]; [3],* (* p<0.05)
same,"p, Immobility Time (min 1)",female 129S6/SvEv mice [1]; [3],0.0147
same,"p, Immobility Time (min 1-6)",female 129S6/SvEv mice [1]; [3],0.9878
same,"p, Immobility Time (min 3)",female 129S6/SvEv mice [1]; [3],0.9995
same,"p, Immobility Time (min 4)",female 129S6/SvEv mice [1]; [3],0.9958
same,"p, Immobility Time (min 5)",female 129S6/SvEv mice [1]; [3],0.9958
same,"p, Immobility Time (min 6)",female 129S6/SvEv mice [1]; [3],0.9992
same,"p, Immobility Time Average (min 3-6)",female 129S6/SvEv mice [1]; [3],0.9990
same,"* (significance), Immobility Time (min 1)",female 129S6/SvEv mice [1]; Dunnett test Sal vs. drug (10),** (** p<0.01)
same,"p, Immobility Time (min 1)",female 129S6/SvEv mice [1]; Dunnett test Sal vs. drug (10),0.0064
same,"p, Immobility Time (min 1-6)",female 129S6/SvEv mice [1]; Dunnett test Sal vs. drug (10),>0.9999
same,"p, Immobility Time (min 3)",female 129S6/SvEv mice [1]; Dunnett test Sal vs. drug (10),0.9307
same,"p, Immobility Time (min 4)",female 129S6/SvEv mice [1]; Dunnett test Sal vs. drug (10),0.9497
same,"p, Immobility Time (min 5)",female 129S6/SvEv mice [1]; Dunnett test Sal vs. drug (10),0.9952
same,"p, Immobility Time (min 6)",female 129S6/SvEv mice [1]; Dunnett test Sal vs. drug (10),0.5393
same,"p, Immobility Time Average (min 3-6)",female 129S6/SvEv mice [1]; Dunnett test Sal vs. drug (10),0.8035
same,Immobility on FST Day 2 vs saline,"female 129S6/SvEv mice [1]; all doses of (2S,6S)-HNK and all other dose groups, 1 week before CFC, female mice",failed to reduce average immobility
same,Prophylactic efficacy against stress-induced depressive-like behavior,female 129S6/SvEv mice [1]; [4],"but not (2S,6S)-HNK"
same,"p, Sal vs. drug, Dunnett test: Freezing (Average), Contextual Fear Conditioning Re-exposure","female 129S6/SvEv mice [2]; 0.025 mg/kg, 1 week prophylactic drug",0.9898
same,"p, Sal vs. drug, Dunnett test: Freezing (Average), Contextual Fear Conditioning Re-exposure","female 129S6/SvEv mice [2]; 0.075 mg/kg, 1 week prophylactic drug",0.4829
same,Freezing during 3-shock CFC training vs saline,"female 129S6/SvEv mice [2]; 0.1 mg/kg, female mice",froze significantly less
same,"p, Sal vs. drug, Dunnett test: Freezing (Average), Contextual Fear Conditioning Re-exposure","female 129S6/SvEv mice [2]; 0.1 mg/kg, 1 week prophylactic drug",0.9999
same,Freezing during 3-shock CFC training vs saline,"female 129S6/SvEv mice [2]; 0.3 mg/kg, female mice",froze significantly more
same,"p, Sal vs. drug, Dunnett test: Freezing (Average), Contextual Fear Conditioning Re-exposure","female 129S6/SvEv mice [2]; 0.3 mg/kg, 1 week prophylactic drug",0.1973
same,"p, Sal vs. drug, Dunnett test: Freezing (Average), Contextual Fear Conditioning Re-exposure","female 129S6/SvEv mice [2]; 2.5 mg/kg, 1 week prophylactic drug",0.9996
same,"p, Sal vs. drug, Dunnett test: Freezing (Average), Contextual Fear Conditioning Re-exposure","female 129S6/SvEv mice [2]; 10 mg/kg, 1 week prophylactic drug",0.9896
same,"p, Freezing (min 1-5)",female 129S6/SvEv mice [2]; [5],0.9898
same,"p, Freezing (min 2)",female 129S6/SvEv mice [2]; [5],>0.9999
same,"p, Freezing (min 3)",female 129S6/SvEv mice [2]; [5],0.7775
same,"p, Freezing (min 4)",female 129S6/SvEv mice [2]; [5],0.9990
same,"p, Freezing (min 5)",female 129S6/SvEv mice [2]; [5],0.9996
same,"p, Freezing (min 1-5)",female 129S6/SvEv mice [2]; [6],0.4829
same,"p, Freezing (min 2)",female 129S6/SvEv mice [2]; [6],0.9135
same,"p, Freezing (min 3)",female 129S6/SvEv mice [2]; [6],0.3091
same,"p, Freezing (min 4)",female 129S6/SvEv mice [2]; [6],0.5808
same,"p, Freezing (min 5)",female 129S6/SvEv mice [2]; [6],0.2703
same,"p, Freezing (min 1-5)",female 129S6/SvEv mice [2]; [7],0.9999
same,"p, Freezing (min 2)",female 129S6/SvEv mice [2]; [7],0.9997
same,"p, Freezing (min 3)",female 129S6/SvEv mice [2]; [7],0.9998
same,"p, Freezing (min 4)",female 129S6/SvEv mice [2]; [7],0.9889
same,"p, Freezing (min 5)",female 129S6/SvEv mice [2]; [7],>0.9999
same,"p, Freezing (min 1-5)",female 129S6/SvEv mice [2]; [8],0.1973
same,"p, Freezing (min 2)",female 129S6/SvEv mice [2]; [8],0.2064
same,"p, Freezing (min 3)",female 129S6/SvEv mice [2]; [8],0.2280
same,"p, Freezing (min 4)",female 129S6/SvEv mice [2]; [8],0.8082
same,"p, Freezing (min 5)",female 129S6/SvEv mice [2]; [8],0.3262
same,"p, Freezing (min 1-5)",female 129S6/SvEv mice [2]; [9],0.9996
same,"p, Freezing (min 2)",female 129S6/SvEv mice [2]; [9],0.9991
same,"p, Freezing (min 3)",female 129S6/SvEv mice [2]; [9],0.9908
same,"p, Freezing (min 4)",female 129S6/SvEv mice [2]; [9],0.9997
same,"p, Freezing (min 5)",female 129S6/SvEv mice [2]; [9],>0.9999
same,"p, Freezing (min 1-5)",female 129S6/SvEv mice [2]; [10],0.9896
same,"p, Freezing (min 2)",female 129S6/SvEv mice [2]; [10],0.5764
same,"p, Freezing (min 3)",female 129S6/SvEv mice [2]; [10],0.9993
same,"p, Freezing (min 4)",female 129S6/SvEv mice [2]; [10],0.9991
same,"p, Freezing (min 5)",female 129S6/SvEv mice [2]; [10],>0.9999
same,"p, Freezing (min 1-5)",female 129S6/SvEv mice [2]; [11],0.9955
same,"p, Freezing (min 4)",female 129S6/SvEv mice [2]; [11],0.7894
same,"p, Freezing (min 5)",female 129S6/SvEv mice [2]; [11],>0.9999
same,"p, Freezing (min 1-5)",female 129S6/SvEv mice [2]; [12],0.9996
same,"p, Freezing (min 4)",female 129S6/SvEv mice [2]; [12],0.9991
same,"p, Freezing (min 5)",female 129S6/SvEv mice [2]; [12],>0.9999
same,"p, Freezing (min 1-5)",female 129S6/SvEv mice [2]; [13],0.2466
same,"p, Freezing (min 4)",female 129S6/SvEv mice [2]; [13],0.3064
same,"p, Freezing (min 5)",female 129S6/SvEv mice [2]; [13],0.5117
same,"* (significance), Freezing (min 1-5)",female 129S6/SvEv mice [2]; [14],** (** p<0.01)
same,"p, Freezing (min 1-5)",female 129S6/SvEv mice [2]; [14],0.0085
same,"p, Freezing (min 4)",female 129S6/SvEv mice [2]; [14],0.0675
same,"p, Freezing (min 5)",female 129S6/SvEv mice [2]; [14],0.0731
same,"p, Freezing (min 1-5)",female 129S6/SvEv mice [2]; [15],0.6733
same,"p, Freezing (min 4)",female 129S6/SvEv mice [2]; [15],0.9438
same,"p, Freezing (min 5)",female 129S6/SvEv mice [2]; [15],0.7492
same,"p, Freezing (min 1-5)",female 129S6/SvEv mice [2]; [16],0.5049
same,"p, Freezing (min 4)",female 129S6/SvEv mice [2]; [16],0.7737
same,"p, Freezing (min 5)",female 129S6/SvEv mice [2]; [16],0.5845
same,Freezing during re-exposure to the CFC training context vs saline,"female 129S6/SvEv mice [2]; single i.p. injection 1 week before 3-shock CFC, all doses, female mice",do not significantly alter freezing; also recorded: did not alter overall freezing
same,Attenuation of learned fear,female 129S6/SvEv mice [2]; [4],do not attenuate learned fear
